The results in this text go back to patent publication US20230365592A1 (Agios Pharmaceuticals, Inc., priority 2022, published 2023).

Some results are limits rather than exact numbers.

The assay addresses T1, human PAH with the R408W mutation (Homo sapiens, UniProt P00439, R408W).
T1 construct: expressed in transfected cells
T1 sequence (P00439 1-452 R408W): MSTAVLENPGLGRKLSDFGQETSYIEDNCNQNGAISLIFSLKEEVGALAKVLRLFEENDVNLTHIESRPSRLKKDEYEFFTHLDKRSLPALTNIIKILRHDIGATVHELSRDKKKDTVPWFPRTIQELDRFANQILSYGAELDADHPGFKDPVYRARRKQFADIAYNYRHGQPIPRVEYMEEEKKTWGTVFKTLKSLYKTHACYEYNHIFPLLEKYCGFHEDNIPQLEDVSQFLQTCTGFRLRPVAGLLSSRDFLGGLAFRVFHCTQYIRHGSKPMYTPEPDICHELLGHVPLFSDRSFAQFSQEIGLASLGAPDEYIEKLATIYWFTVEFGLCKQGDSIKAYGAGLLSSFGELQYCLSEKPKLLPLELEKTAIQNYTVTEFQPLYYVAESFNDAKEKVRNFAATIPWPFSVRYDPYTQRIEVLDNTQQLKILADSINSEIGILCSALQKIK
Put plainly: Cell Based Phenylalanine Flux Assay.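 Further: after compound treatment, cells received sepiapterin plus isotope-labelled Phenylalanine for 4 hours, then labelled Tyrosine in the medium was quantified, 10-point 2-fold dilution series run in duplicate.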 As to conditions: A375 cells expressing human PAH R408W; 24 hrs compound incubation; 13C-Tyrosine by LC-MS; average where tested multiple times; read-out: AC50.

For orientation: AC50 means the midpoint of the concentration-response curve, whichever way the signal moves. Turning to `Nc1cnc(N2CCc3[nH]cnc3[C@H]2c2cc3c(C(F)(F)F)cccn3n2)nc1` [Example 1835, (S)-2-(4-(4-(trifluoromethyl)pyrazolo[1,5-a]pyridin-2-yl)-1,4,6,7-tetrahydro-5H-imidazo[4,5-c]pyridin-5-yl)pyrimidin-5-amine], the AC50 was in the range of 0.5 to 1 µM.
`Nc1cnc(N2CCc3[nH]cnc3[C@H]2c2cc3c(F)cccn3n2)nc1` [Example 1837, (S)-2-(4-(4-fluoropyrazolo[1,5-a]pyridin-2-yl)-1,4,6,7-tetrahydro-5H-imidazo[4,5-c]pyridin-5-yl)pyrimidin-5-amine]: the concentration at half-maximal activity (AC50) lay in the range of 0.5 to 1 µM.
With `O=C(c1nnc(C2CC2)o1)N1CCc2[nH]cnc2[C@H]1c1cc2c(C3CC3)cccn2n1` [Example 1838, (S)-(5-cyclopropyl-1,3,4-oxadiazol-2-yl)(4-(4-cyclopropylpyrazolo[1,5-a]pyridin-2-yl)-1,4,6,7-tetrahydro-5H-imidazo[4,5-c]pyridin-5-yl)methanone] the figure was less than 0.5 µM; with `O=C(c1nnc(C2CC2)o1)N1CCc2[nH]cnc2[C@@H]1c1cc2c(C3CC3)cccn2n1` [Example 1839, (R)-(5-cyclopropyl-1,3,4-oxadiazol-2-yl)(4-(4-cyclopropylpyrazolo[1,5-a]pyridin-2-yl)-1,4,6,7-tetrahydro-5H-imidazo[4,5-c]pyridin-5-yl)methanone], more than 5 µM; with `CC(C)(C)c1nnc(C(=O)N2CCc3[nH]cnc3[C@H]2c2cc3c(C4CC4)cccn3n2)o1` [Example 1840, (S)-(5-(tert-butyl)-1,3,4-oxadiazol-2-yl)(4-(4-cyclopropylpyrazolo[1,5-a]pyridin-2-yl)-1,4,6,7-tetrahydro-5H-imidazo[4,5-c]pyridin-5-yl)methanone], less than 0.5 µM.
With `CC(C)(C)c1nnc(C(=O)N2CCc3[nH]cnc3[C@@H]2c2cc3c(C4CC4)cccn3n2)o1` [Example 1841, (R)-(5-(tert-butyl)-1,3,4-oxadiazol-2-yl)(4-(4-cyclopropylpyrazolo[1,5-a]pyridin-2-yl)-1,4,6,7-tetrahydro-5H-imidazo[4,5-c]pyridin-5-yl)methanone] the figure was more than 5 µM.
With `Cc1cccn2nc([C@H]3c4nc[nH]c4CCN3c3nnc(-c4c(F)cccc4F)o3)cc12` [Example 1844, (R)-2-(2,6-difluorophenyl)-5-(4-(4-methylpyrazolo[1,5-a]pyridin-2-yl)-6,7-dihydro-1H-imidazo[4,5-c]pyridin-5(4H)-yl)-1,3,4-oxadiazole] the figure was more than 5 µM.
For the compound `Cc1cccn2nc([C@@H]3c4nc[nH]c4CCN3c3nnc(-c4c(F)cccc4F)o3)cc12` [Example 1845, (S)-2-(2,6-difluorophenyl)-5-(4-(4-methylpyrazolo[1,5-a]pyridin-2-yl)-6,7-dihydro-1H-imidazo[4,5-c]pyridin-5(4H)-yl)-1,3,4-oxadiazole], the AC50 was less than 0.5 µM.
With `Fc1cccc(F)c1-c1nnc(N2CCc3[nH]cnc3[C@H]2c2cc3c(C(F)(F)F)cccn3n2)o1` [Example 1847, (S)-2-(2,6-difluorophenyl)-5-(4-(4-(trifluoromethyl)pyrazolo[1,5-a]pyridin-2-yl)-6,7-dihydro-1H-imidazo[4,5-c]pyridin-5(4H)-yl)-1,3,4-oxadiazole], the AC50 was less than 0.5 µM.
Take `FC(F)(F)c1nnc(N2CCc3[nH]cnc3[C@@H]2c2cc3c(Cl)cccn3n2)o1` [Example 1848, (R)-2-(4-(4-chloropyrazolo[1,5-a]pyridin-2-yl)-6,7-dihydro-1H-imidazo[4,5-c]pyridin-5(4H)-yl)-5-(trifluoromethyl)-1,3,4-oxadiazole]: the AC50 is more than 5 µM.
On to `FC(F)(F)c1nnc(N2CCc3[nH]cnc3[C@H]2c2cc3c(Cl)cccn3n2)o1` [Example 1849, (S)-2-(4-(4-chloropyrazolo[1,5-a]pyridin-2-yl)-6,7-dihydro-1H-imidazo[4,5-c]pyridin-5(4H)-yl)-5-(trifluoromethyl)-1,3,4-oxadiazole], for which the AC50 is less than 0.5 µM.
In the case of `Cc1cccc2cc([C@@H]3c4nc[nH]c4CCN3c3nnc(C(F)(F)F)o3)nn12` [Example 1850, (S)-2-(4-(7-methylpyrazolo[1,5-a]pyridin-2-yl)-6,7-dihydro-1H-imidazo[4,5-c]pyridin-5(4H)-yl)-5-(trifluoromethyl)-1,3,4-oxadiazole] it was 0.5 to 1 µM.
With `Cc1cccc2cc([C@H]3c4nc[nH]c4CCN3c3nnc(C(F)(F)F)o3)nn12` [Example 1851, (R)-2-(4-(7-methylpyrazolo[1,5-a]pyridin-2-yl)-6,7-dihydro-1H-imidazo[4,5-c]pyridin-5(4H)-yl)-5-(trifluoromethyl)-1,3,4-oxadiazole], the concentration at half-maximal activity (AC50) fell in the range of 1 to 5 µM.
`Nc1cnc(N2CCc3[nH]cnc3[C@H]2c2cc3c(C(F)F)cccn3n2)nc1` [Example 1852, (S)-2-(4-(4-(difluoromethyl)pyrazolo[1,5-a]pyridin-2-yl)-1,4,6,7-tetrahydro-5H-imidazo[4,5-c]pyridin-5-yl)pyrimidin-5-amine]: the AC50 fell in the range of 0.5 to 1 µM.
Turning to `Nc1cnc(N2CCc3[nH]cnc3[C@@H]2c2cc3c(C(F)F)cccn3n2)nc1` [Example 1853, (R)-2-(4-(4-(difluoromethyl)pyrazolo[1,5-a]pyridin-2-yl)-1,4,6,7-tetrahydro-5H-imidazo[4,5-c]pyridin-5-yl)pyrimidin-5-amine], the AC50 lay in the range of 1 to 5 µM.
With `O=C(c1nnc(-c2ncccc2F)o1)N1CCc2[nH]cnc2[C@@H]1c1cc2c(C3CC3)cccn2n1` [Example 1854, (R)-(4-(4-cyclopropylpyrazolo[1,5-a]pyridin-2-yl)-1,4,6,7-tetrahydro-5H-imidazo[4,5-c]pyridin-5-yl)(5-(3-fluoropyridin-2-yl)-1,3,4-oxadiazol-2-yl)methanone], the half-maximal activity concentration (AC50) was more than 5 µM.
As to `O=C(c1nnc(-c2ncccc2F)o1)N1CCc2[nH]cnc2[C@H]1c1cc2c(C3CC3)cccn2n1` [Example 1855, (S)-(4-(4-cyclopropylpyrazolo[1,5-a]pyridin-2-yl)-1,4,6,7-tetrahydro-5H-imidazo[4,5-c]pyridin-5-yl)(5-(3-fluoropyridin-2-yl)-1,3,4-oxadiazol-2-yl)methanone], the AC50 was less than 0.5 µM.
Consider `Cc1nnc(C(=O)N2CCc3[nH]cnc3[C@H]2c2cc3c(C(C)C)cccn3n2)o1` [Example 1858, (S)-(4-(4-isopropylpyrazolo[1,5-a]pyridin-2-yl)-1,4,6,7-tetrahydro-5H-imidazo[4,5-c]pyridin-5-yl)(5-methyl-1,3,4-oxadiazol-2-yl)methanone], for which the half-maximal activity concentration (AC50) is less than 0.5 µM.
In the case of `Fc1ccc(-c2nnc(N3CCc4[nH]cnc4[C@H]3c3cc4ccccn4n3)o2)cc1` [Example 1861, (S)-2-(4-fluorophenyl)-5-(4-(pyrazolo[1,5-a]pyridin-2-yl)-1,4,6,7-tetrahydro-5H-imidazo[4,5-c]pyridin-5-yl)-1,3,4-oxadiazole], the AC50 is less than 0.5 µM.
In the case of `Fc1cccc(F)c1-c1nnc(N2CCc3[nH]cnc3[C@@H]2c2cc3c(C(F)F)cccn3n2)o1` [Example 1862, (R)-2-(4-(4-(difluoromethyl)pyrazolo[1,5-a]pyridin-2-yl)-1,4,6,7-tetrahydro-5H-imidazo[4,5-c]pyridin-5-yl)-5-(2,6-difluorophenyl)-1,3,4-oxadiazole] it was more than 5 µM; in that of `Fc1cccc(F)c1-c1nnc(N2CCc3[nH]cnc3[C@H]2c2cc3c(C(F)F)cccn3n2)o1` [Example 1863, (S)-2-(4-(4-(difluoromethyl)pyrazolo[1,5-a]pyridin-2-yl)-1,4,6,7-tetrahydro-5H-imidazo[4,5-c]pyridin-5-yl)-5-(2,6-difluorophenyl)-1,3,4-oxadiazole], less than 0.5 µM; in that of `Cn1cc(-c2nnc(C(=O)N3CCc4[nH]cnc4[C@H]3c3cc4c(Br)cccn4n3)o2)cn1` [Example 1868, (S)-(4-(4-bromopyrazolo[1,5-a]pyridin-2-yl)1,4,6,7-tetrahydro-5H-imidazo[4,5-c]pyridin-5-yl)(5-(1-methyl-1H-pyrazol-4-yl)-1,3,4-oxadiazol-2-yl)methanone], less than 0.5 µM.
In the case of `Cn1cc(-c2nnc(C(=O)N3CCc4[nH]cnc4[C@@H]3c3cc4c(Br)cccn4n3)o2)cn1` [Example 1869, (R)-(4-(4-bromopyrazolo[1,5-a]pyridin-2-yl)-1,4,6,7-tetrahydro-5H-imidazo[4,5-c]pyridin-5-yl)(5-(1-methyl-1H-pyrazol-4-yl)-1,3,4-oxadiazol-2-yl)methanone] it was more than 5 µM; in that of `FC(F)(F)c1cccn2nc([C@@H]3c4nc[nH]c4CCN3c3ccccn3)cc12` [Example 1870, (S)-5-(pyridin-2-yl)-4-(4-(trifluoromethyl)pyrazolo[1,5-a]pyridin-2-yl)-4,5,6,7-tetrahydro-1H-imidazo[4,5-c]pyridine], less than 0.5 µM.
Turning to `FC(F)(F)c1cccn2nc([C@H]3c4nc[nH]c4CCN3c3ccccn3)cc12` [Example 1871, (R)-5-(pyridin-2-yl)-4-(4-(trifluoromethyl)pyrazolo[1,5-a]pyridin-2-yl)-4,5,6,7-tetrahydro-1H-imidazo[4,5-c]pyridine], the AC50 is more than 5 µM.
With `Nc1cnc(N2CCc3[nH]cnc3[C@@H]2c2cc3c(Cl)cccn3n2)nc1` [Example 1872, (R)-2-(4-(4-chloropyrazolo[1,5-a]pyridin-2-yl)-1,4,6,7-tetrahydro-5H-imidazo[4,5-c]pyridin-5-yl)pyrimidin-5-amine] the figure was more than 5 µM; with `Nc1cnc(N2CCc3[nH]cnc3[C@H]2c2cc3c(Cl)cccn3n2)nc1` [Example 1873, (S)-2-(4-(4-chloropyrazolo[1,5-a]pyridin-2-yl)-1,4,6,7-tetrahydro-5H-imidazo[4,5-c]pyridin-5-yl)pyrimidin-5-amine], 0.5 to 1 µM.
